Source: patent US20180161427A1, “COMBINATION OF AN ANTI-IL-10 ANTIBODY AND A CPG-C TYPE OLIGONUCLEOTIDE FOR TREATING CANCER” (MERCK SHARP & DOHME CORP., priority 2015, published 2018)
Strand notation (5' to 3'): a small letter for the sugar, then the base; units joined by * are phosphorothioate-linked, units joined directly phosphodiester-linked; [ ] holds rarer units or linkages, { } end groups; capitals alone tell only the bases. d = 2'-deoxy (DNA)

How the values were obtained:
[1] = test system: TC-1 tumors; experiment: Anti-tumor activity in mouse TC-1 bilateral tumor model; format: in vivo; conditions: antibody 10 mg/kg IP
Text: Approximately seven to eight week old female C57BL/6J mice were obtained from Jackson Laboratory (Sacramento, Calif.). Conventional animal chow and water were provided ad libitum. Animals were housed for one week prior to the start of the study. The average weight of the animals at the start of the study (i.e. tumor implantation) was 19 grams.
The TC-1 cell line, provided by Johns Hopkins University (Baltimore, Md.) is derived from mouse primary lung epithelial cells that were cotransformed with human papilloma virus (HPV-16) E6 and E7 and c-Ha.ras oncogene (Lin K Y et al. Cancer Res. 1996 Jan. 1, 56(1):21-6). TC-1 cells are syngeneic to C57BL6/J strain.
The TC-1 cells were cultured in DMEM supplemented with 10% fetal bovine serum and 0.4 mg/mL Geneticin. Sub-confluent TC-1 cells were injected subcutaneously (SC) in 0.1 mL of serum-free DMEM in both lower dorsal flanks (1×10^5 in right flank and 0.5×10^5 in left flank) of each animal. Animals were first shaved with electronic clippers in the areas that were used for the implantation.
Tumors were measured the day before the first dose and twice a week thereafter. Tumor length and width were measured using electronic calipers and tumor volume determined using the formula Volume (mm^3)=0.5×Length×[…] where length is the longer dimension. Animals were weighed the day before the first dose and twice a week thereafter. […]

[2] = test system: Human peripheral blood mononuclear cells (PBMCs); experiment: Induction of IFNα2a and IL-10 in human PBMCs (48 hours, Meso Scale Discovery kits); format: cell-based
Procedure: Human peripheral blood mononuclear cells (PBMCs) were isolated from buffy coats from two donors with Ficoll-Paque™ PLUS (GE Healthcare Bio-Sciences, Pittsburgh, Pa.) using standard Ficoll separation methods. Isolated PBMCs were washed twice in phosphate buffered saline (PBS) containing 2% fetal bovine serum (FBS), and 2 mM ethylenediaminetetraacetic acid (EDTA). The cells were resuspended and cultured in 96-well U-bottom plates at 1×10^6 cells per well in RPMI 1640 containing 10% FBS, 2 mM L-glutamine, 100 U/mL pencillin and 100 μg/mL streptomycin. The cells were cultured in the presence of C59-08 at doses ranging from 0.016 μM to 5 μM or 7 μM control ODN 1040 in a humidifed incubator at 37° C., 5% CO2 in final volume of 0.2 mL for 48 hours. Supernatants were harvested and assayed for IFNα2a and IL-10 using Meso Scale Discovery human IFNα2a and human IL-10 tissue culture kits (Rockville, Md.).

[3] = test system: human tumor histocultures (renal cell carcinoma, NSCLC, bladder and colorectal cancer); experiment: Ex vivo treatment of human tumor histocultures, mRNA expression by real-time quantitative PCR; format: cell-based; conditions: 0.1, 0.5, and 1 μM, 24 hours; RCC (n=5), NSCLC (n=3), bladder (n=1), colorectal (n=1) histocultures
Procedure: Human tumor specimens from patients were obtained from commercial sources (Bio-Options, Folio, Coversant Bio, and Boston BioSource) and University of Rochester.
Fresh tumor tissues were collected within 1 hour following surgery and placed into AQIX transportation media (AQIX, UK). Tissues were transported overnight at 4° C. to Merck Research Laboratories, Palo Alto, Calif.
The tumors were embedded in UltraPure™ low melting point agarose (Invitrogen, Carlsbad, Calif.) and were cut 400 μm with Mcllwain™ Tissue Chopper (Stoelting Co., Wood Dale, Ill.). The tumor slices were first set on the Millicell-CM cell culture insert (Millipore, Billerica, Calif.) and cultured at the interface between air and medium of 1 ml DMEM supplemented with 4.5 g/L glucose, L-glutamine, sodium pyruvate (Mediatech, Inc., Manassas, Va.), 10% FBS (SAFC Biosciences, Lenexa, Kans.), 100 U/ml penicillin, and 100 ug/ml streptomycin in humidifed incubator at 37° C., 5% CO2.
The tumor slices were cultured in the presence of 0.1, 0.5, and 1 μM C59-08 or 1 μM control ODN 1040 for 24 hours. The tumor samples were snap frozen in dry ice and stored at […] prior to processing.
Total RNA was isolated by homogenization into RNA STAT-60 (Tel-Test, Friendswood, Tex.) using a polytron homogenizer. The total RNA was extracted according to the manufacturer's protocol. After precipitation with isopropanol, total RNA was re-extracted with phenol:chloroform:isoamyl alcohol (25:24:1) (Sigma-Aldrich, St. Louis, Mo.) using phase-lock light tubes.
DNase-treated total RNA was reverse-transcribed using QuantiTect Reverse Transcription (Qiagen, Valencia, Calif.) according to manufacturer's protocol. […] Real-time quantitative PCR on 10 ng of cDNA from each sample was performed using unlabeled primers at 900 nM each with 250 nM of FAM-labeled probe in a TAQMAN™ RTqPCR reaction on the Fluidigm Biomark sequence detection system (Fluidigm, Foster City, Calif.). Levels of ubiquitin were measured in a separate reaction and were used to normalize the data by the Δ-Δ Ct method. […]

[4] = 2 donors, 0.016 μM to 5 μM, supernatant

## 5′-TCGAACGTTCGAACGTTCGAACGTTCGAAT-3′ (DNA dT*dC*dG*dA*dA*dC*dG*dT*dT*dC*dG*dA*dA*dC*dG*dT*dT*dC*dG*dA*dA*dC*dG*dT*dT*dC*dG*dA*dA*dT) [Compound C59-08, oligodeoxynucleotide with a phosphorothioate backbone and 5′OH and 3′OH; CpG class C type TLR9 agonist]
[1]; left flank tumor, ODN IT only in right tumors on Days 0, 4, 8, 12
  Complete regressions (CRs) of non-injected tumors: did not result in CRs
[1]; right flank tumor, ODN IT (C59-08 2.5 mg/kg, CpG 1826 1 mg/kg) on Days 0, 4, 8, 12
  Complete regressions (CRs) of injected tumors: did not result in CRs
[2]
  optimal concentration for IFNα2a and IL-10 production: 0.2 µM
[2]; [4]
  IFNα2a production: induces
  IL-10 production: induces
[3]
  mRNA expression of IFNα-inducible genes (IFNα2, MCP1, MCP2, OAS2, IP-10, GBP1, ISG-54, MxB, and TRAIL): induced
  mRNA expression of cytokines (IFNβ, IL-10, IL-12, IL-6, and TNFα): induced
  mRNA expression of immune activation markers (CD80, CD86, CD40, CD70 and OX40L): induced
